1 compound from publication PMC3653412 (European journal of pharmacology, 2012) can be followed below.

The assay addresses complex I (NADH:ubiquinone oxidoreductase) (Rattus norvegicus, UniProt A6K8N6+P03889+Q641Y2). The assay is described as follows: oxygen consumption of isolated mitochondria, Clark electrode. It counts as biochemical. To be noted: read-out: % inhibition at 0.5 mM.

Structures are written as SMILES.

What is called inhibition is the share of the control response that was lost under treatment.

For `FC(F)OC(Cl)C(F)(F)F` (stereo not shown) [isoflurane], the inhibition at 500 µM was found to be 28 ± 10%.
